According to patent EP0007672A1, “Isocyanoalkenes, process and useful intermediates for their preparation, pharmaceutical and fungicidal preparations containing those isocyanoalkenes and the use of the fungicidal preparations in agriculture” (GIST-BROCADES N.V., priority 1978, dated 1980):
Values after ≈ are worked out from the molar mass of the structure shown. Like-named read-outs stand apart in the source and are kept apart here.

Tests used:
Experiment in all cases: MIC (Minimum Inhibitory Concentration)
Format in all cases: cell-based
Candida albicans = test system: Candida albicans
Excerpt: (§1) In addition they may be used for combatting plant diseases, in particular as fungicides. A list of MIC (Minimum Inhibitory Concentration) values for a number of microorganisms is listed herebelow. The figures in the column headings refer to the compounds prepared according to the experimental examples in comparison with the spectrum of 1-[2-(2,4-dichlorophenyl)-2-{(2,4-dichlorophenyl)-methoxy} -ethyl7-1H-imidazole (better known under the name of miconazole, c.f. Merck Index 9th Ed. page 6047) or natamycin (pimaricin, c.f. Merck Index 9th Ed. page 7233).

Pasteurella multocida = conditions: read-out: MIC values
Excerpt: as §1

[1] = test system: Streptococcus haemolyticus; conditions: read-out: MIC values
Excerpt: as §1

Trichophyton equinum = test system: Trichophyton equinum
Excerpt: as §1

[2] = test system: Trichophyton mentagrophytus
Excerpt: as §1

Trichophyton quickeaneum = conditions: read-out: MIC values
Excerpt: as §1

Trichophyton rubrum = test system: Trichophyton rubrum
Excerpt: as §1

[3] = test system: Trichophyton schoenleinii; conditions: read-out: MIC values
Excerpt: as §1

Trichophyton tonsurans = conditions: read-out: MIC values
Excerpt: as §1

Trichophyton verrucosum = test system: Trichophyton verrucosum
Excerpt: as §1

Trichophyton violoceum = conditions: read-out: MIC values
Excerpt: as §1

With `[C-]#[N+]C(=C(C)c1cccs1)S(=O)(=O)c1ccc(C)cc1` [Example 17, 1-isocyano-1-(4-toluenesulphonyl)-2-(2-thienyl)-1-propene] as the compound, how does the MIC (Candida albicans; Candida albicans A 7, read-out: MIC values) read?
The MIC was 0.75 µg/mL (≈ 2.47 µM).

And the MIC (Candida albicans; Candida albicans A 3140, read-out: MIC values)?
The MIC was 1.5 µg/mL (≈ 4.94 µM).

What about the MIC (Candida albicans; Candida albicans A 3141, read-out: MIC values) of the same compound?
The MIC was 1.5 µg/mL (≈ 4.94 µM).

What about the MIC (Candida albicans; Candida albicans A 3142, read-out: MIC values) of the same compound?
Its MIC is 1.5 µg/mL (≈ 4.94 µM).

And the MIC (Candida albicans; Candida albicans A 3143, read-out: MIC values)?
The MIC was 1.5 µg/mL (≈ 4.94 µM).

And the MIC (Candida albicans; Candida albicans A 3144, read-out: MIC values)?
The MIC was 1.5 µg/mL (≈ 4.94 µM).

And the MIC (Candida albicans; Candida albicans A 3145, read-out: MIC values)?
The MIC was 3 µg/mL (≈ 9.89 µM).

And the MIC (Candida albicans; Candida albicans A 3165, read-out: MIC values)?
The MIC was 1.5 µg/mL (≈ 4.94 µM).

And the MIC (Candida albicans; Candida albicans A 3166, read-out: MIC values)?
The MIC was 1.5 µg/mL (≈ 4.94 µM).

What about the MIC (Candida albicans; Candida albicans A 3167, read-out: MIC values) of the same compound?
Its MIC is 1.5 µg/mL (≈ 4.94 µM).

What about the MIC (Candida albicans; Candida albicans A 3168, read-out: MIC values) of the same compound?
Its MIC is 3 µg/mL (≈ 9.89 µM).

What about the MIC (Candida albicans; Candida albicans A 3169, read-out: MIC values) of the same compound?
Its MIC is 1.5 µg/mL (≈ 4.94 µM).

And the MIC (Candida albicans; Candida albicans A 3171, read-out: MIC values)?
Its MIC is 1.5 µg/mL (≈ 4.94 µM).

And the MIC (Candida albicans; Candida albicans A 3184, read-out: MIC values)?
Its MIC is 1.5 µg/mL (≈ 4.94 µM).

And the MIC (Candida albicans; Candida albicans A 3190, read-out: MIC values)?
The MIC was 1.5 µg/mL (≈ 4.94 µM).

And the MIC (Candida albicans; Candida albicans A 3191, read-out: MIC values)?
The MIC was 3 µg/mL (≈ 9.89 µM).

And the MIC (Candida albicans; Candida albicans A 3192, read-out: MIC values)?
Its MIC is 1.5 µg/mL (≈ 4.94 µM).

And the MIC (Candida albicans; Candida albicans A 3194, read-out: MIC values)?
Its MIC is 3 µg/mL (≈ 9.89 µM).

And the MIC (Candida albicans; Candida albicans A 3196, read-out: MIC values)?
Its MIC is 1.5 µg/mL (≈ 4.94 µM).

What about the MIC (Pasteurella multocida; Pasteurella multocida A 723) of the same compound?
The MIC was 3 µg/mL (≈ 9.89 µM).

And the MIC ([1]; Streptococcus haemolyticus A 1088)?
Its MIC is 6 µg/mL (≈ 19.8 µM).

And the MIC (Trichophyton equinum; Trichophyton equinum 182-76, read-out: MIC values)?
Its MIC is > 100 µg/mL.

What about the MIC (Trichophyton equinum; Trichophyton equinum 441-51, read-out: MIC values) of the same compound?
Its MIC is 0.75 µg/mL (≈ 2.47 µM).

And the MIC ([2]; Trichophyton mentagrophytus 367-68, read-out: MIC values)?
The MIC was 100 µg/mL (≈ 330 µM).

What about the MIC ([2]; Trichophyton mentagrophytus 421-67, read-out: MIC values) of the same compound?
The MIC was > 100 µg/mL.

What about the MIC ([2]; Trichophyton mentagrophytus A 3252, read-out: MIC values) of the same compound?
Its MIC is 6 µg/mL (≈ 19.8 µM).

And the MIC ([2]; Trichophyton mentagrophytus R 177, read-out: MIC values)?
Its MIC is > 100 µg/mL.

What about the MIC ([2]; Trichophyton mentagrophytus R 178, read-out: MIC values) of the same compound?
Its MIC is > 100 µg/mL.

And the MIC (Trichophyton quickeaneum; Trichophyton quickeaneum A 2040)?
The MIC was 6 µg/mL (≈ 19.8 µM).

What about the MIC (Trichophyton rubrum; Trichophyton rubrum 218-65, read-out: MIC values) of the same compound?
Its MIC is 6 µg/mL (≈ 19.8 µM).

And the MIC (Trichophyton rubrum; Trichophyton rubrum 494-62, read-out: MIC values)?
The MIC was 6 µg/mL (≈ 19.8 µM).

And the MIC (Trichophyton rubrum; Trichophyton rubrum A 810, read-out: MIC values)?
The MIC was 12.5 µg/mL (≈ 41.2 µM).

What about the MIC ([3]; Trichophyton schoenleinii 435-63) of the same compound?
Its MIC is 3 µg/mL (≈ 9.89 µM).

And the MIC (Trichophyton tonsurans; Trichophyton tonsurans 561-50)?
Its MIC is < 0.4 µg/mL.

What about the MIC (Trichophyton verrucosum; Trichophyton verrucosum 134-66, read-out: MIC values) of the same compound?
The MIC was 0.75 µg/mL (≈ 2.47 µM).

What about the MIC (Trichophyton verrucosum; Trichophyton verrucosum A 2922, read-out: MIC values) of the same compound?
Its MIC is 0.4 µg/mL (≈ 1.32 µM).

What about the MIC (Trichophyton violoceum; Trichophyton violoceum 442-62) of the same compound?
The MIC was 3 µg/mL (≈ 9.89 µM).

With `[C-]#[N+]C(=C1CCSCC1)S(=O)(=O)c1ccc(C)cc1` [Example 16a, a-(thian-4-ylidene)-a-(4-toluenesulphonyl)-methylisocyanide] as the compound, how does the MIC (Candida albicans; read-out: MIC values, Candida albicans A 7) read?
The MIC was 6 µg/mL (≈ 20.4 µM).

And the MIC (Candida albicans; read-out: MIC values, Candida albicans A 3140)?
Its MIC is 6 µg/mL (≈ 20.4 µM).

What about the MIC (Candida albicans; read-out: MIC values, Candida albicans A 3141) of the same compound?
Its MIC is 6 µg/mL (≈ 20.4 µM).

And the MIC (Candida albicans; read-out: MIC values, Candida albicans A 3142)?
Its MIC is 6 µg/mL (≈ 20.4 µM).

And the MIC (Candida albicans; read-out: MIC values, Candida albicans A 3143)?
The MIC was 12.5 µg/mL (≈ 42.6 µM).

What about the MIC (Candida albicans; read-out: MIC values, Candida albicans A 3144) of the same compound?
Its MIC is 12.5 µg/mL (≈ 42.6 µM).

What about the MIC (Candida albicans; read-out: MIC values, Candida albicans A 3145) of the same compound?
Its MIC is 12.5 µg/mL (≈ 42.6 µM).

And the MIC (Candida albicans; read-out: MIC values, Candida albicans A 3165)?
Its MIC is 6 µg/mL (≈ 20.4 µM).

And the MIC (Candida albicans; read-out: MIC values, Candida albicans A 3166)?
Its MIC is 3 µg/mL (≈ 10.2 µM).

And the MIC (Candida albicans; read-out: MIC values, Candida albicans A 3167)?
The MIC was 3 µg/mL (≈ 10.2 µM).

What about the MIC (Candida albicans; read-out: MIC values, Candida albicans A 3168) of the same compound?
The MIC was 3 µg/mL (≈ 10.2 µM).

What about the MIC (Candida albicans; read-out: MIC values, Candida albicans A 3169) of the same compound?
Its MIC is 12.5 µg/mL (≈ 42.6 µM).

What about the MIC (Candida albicans; read-out: MIC values, Candida albicans A 3171) of the same compound?
Its MIC is 6 µg/mL (≈ 20.4 µM).

And the MIC (Candida albicans; read-out: MIC values, Candida albicans A 3184)?
Its MIC is 12.5 µg/mL (≈ 42.6 µM).

And the MIC (Candida albicans; read-out: MIC values, Candida albicans A 3190)?
The MIC was 25 µg/mL (≈ 85.2 µM).

What about the MIC (Candida albicans; read-out: MIC values, Candida albicans A 3191) of the same compound?
Its MIC is 25 µg/mL (≈ 85.2 µM).

And the MIC (Candida albicans; read-out: MIC values, Candida albicans A 3192)?
The MIC was 25 µg/mL (≈ 85.2 µM).

What about the MIC (Candida albicans; read-out: MIC values, Candida albicans A 3194) of the same compound?
Its MIC is 25 µg/mL (≈ 85.2 µM).

And the MIC (Candida albicans; read-out: MIC values, Candida albicans A 3196)?
Its MIC is 25 µg/mL (≈ 85.2 µM).

And the MIC (Pasteurella multocida; Pasteurella multocida)?
Its MIC is 6 µg/mL (≈ 20.4 µM).

What about the MIC ([1]; Streptococcus) of the same compound?
Its MIC is 25 µg/mL (≈ 85.2 µM).

What about the MIC (Trichophyton equinum; read-out: MIC values, Trichophyton equinum 182-76) of the same compound?
The MIC was 25 µg/mL (≈ 85.2 µM).

What about the MIC (Trichophyton equinum; read-out: MIC values, Trichophyton equinum 441-51) of the same compound?
The MIC was 3 µg/mL (≈ 10.2 µM).

And the MIC ([2]; read-out: MIC values, Trichophyton mentagrophytus 367-68)?
Its MIC is 25 µg/mL (≈ 85.2 µM).

And the MIC ([2]; read-out: MIC values, Trichophyton mentagrophytus 421-67)?
Its MIC is 50 µg/mL (≈ 170 µM).

And the MIC ([2]; read-out: MIC values, Trichophyton mentagrophytus A 3252)?
The MIC was 25 µg/mL (≈ 85.2 µM).

What about the MIC ([2]; read-out: MIC values, Trichophyton mentagrophytus R 177) of the same compound?
The MIC was 12.5 µg/mL (≈ 42.6 µM).

And the MIC ([2]; read-out: MIC values, Trichophyton mentagrophytus R 178)?
Its MIC is 100 µg/mL (≈ 341 µM).

What about the MIC (Trichophyton quickeaneum; Trichophyton) of the same compound?
Its MIC is 12.5 µg/mL (≈ 42.6 µM).

And the MIC (Trichophyton rubrum; read-out: MIC values, Trichophyton rubrum 218-65)?
The MIC was 6 µg/mL (≈ 20.4 µM).

What about the MIC (Trichophyton rubrum; read-out: MIC values, Trichophyton rubrum 494-62) of the same compound?
The MIC was 25 µg/mL (≈ 85.2 µM).

And the MIC (Trichophyton rubrum; read-out: MIC values, Trichophyton rubrum A 810)?
The MIC was 3 µg/mL (≈ 10.2 µM).

What about the MIC ([3]; Trichophyton schoenleinii) of the same compound?
Its MIC is 6 µg/mL (≈ 20.4 µM).

And the MIC (Trichophyton tonsurans; Trichophyton tonsurans)?
The MIC was 0.4 µg/mL (≈ 1.36 µM).

What about the MIC (Trichophyton verrucosum; read-out: MIC values, Trichophyton verrucosum 134-66) of the same compound?
The MIC was 3 µg/mL (≈ 10.2 µM).

And the MIC (Trichophyton verrucosum; read-out: MIC values, Trichophyton verrucosum A 2922)?
The MIC was 1.5 µg/mL (≈ 5.11 µM).

What about the MIC (Trichophyton violoceum; Trichophyton) of the same compound?
The MIC was 6 µg/mL (≈ 20.4 µM).
